For 2 compounds, Viscosity and DX living time results are on record in patent US20130149740A1, “METHOD FOR THE PRODUCTION OF A POLYMERIZED PRODUCT” (Baxter Healthcare S.A., priority 2011, published 2013).

Series [1] in a line: Viscosity and estimated capillary number of fibrin sealant components and mixes (squeezing regime). The series is classed as physicochemical. The settings on record: at 130 s^−1. On the procedure:
For these experiments, the experimental device and set-up was the same as described above. However, the liquid which is segmented by air is a mix. Raw products are fibrinogen (with methylene blue as coloring agent) and thrombin from TISSEEL kit which have to be mixed prior to segmentation. A Duploject system was applied which can be completed with a mixing device upstream the T-junction.
Under the “squeezing” regime of segmentation, the viscosities in the following table are calculated for different components, as well as the corresponding capillary numbers for mixes.

A short description of series [2]: Doxorubicin living time (stability), concentration followed by fluorescence. Conditions: in presence of fibrin. The series is classed as physicochemical. An excerpt: DX has some fluorescence properties which can easily be used to measure its concentration in a solution. Indeed, excited with a 470 nm light, it emits a 593 light which intensity depends on DX concentration.

As to `[Ca+2].[Cl-].[Cl-]` [CaCl2 (40 μmol/ml), CaCl2], the Viscosity in series [1] was 1.3 cP.
Turning to `COc1cccc2c1C(=O)c1c(O)c3c(c(O)c1C2=O)C[C@@](O)(C(=O)CO)C[C@@H]3O[C@H]1C[C@H](N)[C@H](O)[C@H](C)O1` [DX, Doxorubicin], in series [2], the DX living time result is given as “higher than 14 days”.
